Patent US7718659B2, “Heteroarylacetamide inhibitors of factor Xa” (priority 2004, dated 2010)

Target: human factor Xa (Homo sapiens, UniProt P00742)
Test: biochemical
Settings: human factor Xa 3 nM, chromogenic substrate S-2222, HNPT buffer pH 7.8, room temperature; apparent Ki calculated from IC50 according to Cheng and Prusoff
Procedure: Factor Xa activity was measured spectrophotometrically in microtiter plates in a final volume of 150 μl using the following conditions: Inhibition of human factor Xa (Enzyme Research Laboratories) was tested at an enzyme concentration of 3 nM using the chromogenic substrate S-2222 (Chromogenix AB, Mölndal, Sweden) at 200 nM. The reaction kinetics of the enzyme and the substrate were linear with both time and the enzyme concentration. The inhibitors were dissolved in DMSO and tested at various concentrations up to 100 μM. The inhibitors were diluted using HNPT buffer consisting of HEPES 100 mM, NaCl 140 mM, PEG 6000 0.1% and Tween 80 0.02%, pH 7.8. […]
The velocity of the reaction was determined by the autoreader from the slope of the linear regression fit to 7 time points (1 minute). The initial velocity for each inhibitor concentration was determined by the slope of at least 4 time points in the linear phase by a linear regression fit (mOD/min^2). Apparent dissociation constants Ki were calculated according to Cheng and Prusoff [Cheng, Y. C.; Prusoff, W. H. Relationship between the inhibition constant (Ki) and the concentration of the inhibitor that causes 50 percent inhibition (IC50) of an enzyme reaction. Biochem. Pharmacol. 1973, 22, 3099-3108.] based on the IC50 and the respective Km, determined previously (Ki=IC50/(I+S/Km)). […]

Chain of human factor Xa (P00742 235-488 limits assumed): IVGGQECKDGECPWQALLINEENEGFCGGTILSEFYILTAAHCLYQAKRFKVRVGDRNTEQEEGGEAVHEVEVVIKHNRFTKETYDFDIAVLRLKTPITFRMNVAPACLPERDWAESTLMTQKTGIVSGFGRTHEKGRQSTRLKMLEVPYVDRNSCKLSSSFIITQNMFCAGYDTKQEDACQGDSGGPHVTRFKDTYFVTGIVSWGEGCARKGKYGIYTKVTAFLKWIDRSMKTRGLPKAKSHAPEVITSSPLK
Chain of human factor Xa (P00742 41-179 partner limits assumed): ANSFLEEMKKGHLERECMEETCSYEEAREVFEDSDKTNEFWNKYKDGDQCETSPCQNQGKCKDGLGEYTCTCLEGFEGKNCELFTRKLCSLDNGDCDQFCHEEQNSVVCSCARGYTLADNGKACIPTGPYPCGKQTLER

- Ki: 26 nM
Compound: CN1CCC(N2CCN(C(=O)Cc3csc(NC(=O)c4ccc(Br)s4)n3)CC2)CC1 [Ex. 47.3, 5-bromo-thiophene-2-carboxylic acid (4-{2-[4-(1-methyl-piperidin-4-yl)-piperazin-1-yl]-2-oxo-ethyl}-thiazol-2-yl)-amide]
